Where “and” joins values, the source holds several entries; their conditions need not be identical. Identical values can stand only once.
Tests used:
[1] = Crystal; for vapor or sublimation pressure: Calculated from knudsen effusion weight loss; for Normal melting temperature: DTA
[2] = Molar enthalpy of transition or fusion; conditions: Crystal; DSC

COc1cccc(C(N)=O)c1 [3-methoxybenzamide]
[1]
Conditions | vapor or sublimation pressure
345.11 K | 7.2e-05 kPa and 7.1e-05 kPa
347.12 K | 9.2e-05 kPa and 8.8e-05 kPa
349.16 K | 0.000112 kPa and 0.000117 kPa
351.12 K | 0.000143 kPa and 0.000142 kPa
353.16 K | 0.00018 kPa and 0.000175 kPa and 0.000178 kPa
355.16 K | 0.000219 kPa and 0.000225 kPa
357.12 K | 0.000283 kPa and 0.000287 kPa and 0.000286 kPa
359.16 K | 0.000357 kPa and 0.000346 kPa
361.14 K | 0.000432 kPa and 0.000428 kPa and 0.000443 kPa
363.13 K | 0.00055 kPa and 0.000547 kPa and 0.000546 kPa
365.17 K | 0.00068 kPa and 0.000682 kPa and 0.000658 kPa
367.13 K | 0.000844 kPa and 0.000848 kPa and 0.000842 kPa
369.17 K | 0.001047 kPa and 0.001014 kPa
371.15 K | 0.001291 kPa and 0.001251 kPa and 0.00125 kPa

Conditions | Molar enthalpy of transition or fusion [kcal/mol] | Normal melting temperature [°C]
[1] | – | 134.00
[2] | 6.84 | –

COc1ccc(C(N)=O)cc1 [4-methoxybenzamide]
[1]
Conditions | vapor or sublimation pressure
357.12 K | 0.000103 kPa
359.19 K | 0.000128 kPa and 0.000124 kPa
361.16 K | 0.000156 kPa and 0.000154 kPa
363.12 K | 0.000195 kPa and 0.000193 kPa
365.2 K | 0.000242 kPa and 0.000238 kPa
367.16 K | 0.000292 kPa and 0.00029 kPa and 0.000299 kPa
369.12 K | 0.000366 kPa and 0.000368 kPa and 0.000367 kPa
371.18 K | 0.000455 kPa and 0.000442 kPa and 0.000452 kPa
373.15 K | 0.000548 kPa and 0.000535 kPa and 0.000556 kPa
375.11 K | 0.000689 kPa and 0.000681 kPa and 0.000685 kPa
377.18 K | 0.000833 kPa and 0.000838 kPa and 0.000812 kPa
379.15 K | 0.001012 kPa and 0.000985 kPa and 0.000979 kPa

Conditions | Molar enthalpy of transition or fusion [kcal/mol] | Normal melting temperature [°C]
[1] | – | 167.49
[2] | 6.94 | –

COc1ccccc1C(N)=O [2-methoxybenzamide]
[1]
Conditions | vapor or sublimation pressure
335.12 K | 0.0001 kPa and 0.000101 kPa
337.18 K | 0.000126 kPa and 0.000124 kPa
339.16 K | 0.000155 kPa and 0.000153 kPa
341.12 K | 0.000198 kPa and 0.000195 kPa
343.16 K | 0.000248 kPa and 0.000241 kPa and 0.000249 kPa
345.16 K | 0.000305 kPa and 0.0003 kPa and 0.000309 kPa
347.11 K | 0.000389 kPa and 0.000382 kPa and 0.000385 kPa
349.15 K | 0.000486 kPa and 0.000474 kPa and 0.000483 kPa
351.16 K | 0.000594 kPa and 0.000581 kPa
353.12 K | 0.00075 kPa and 0.000738 kPa and 0.000736 kPa
355.17 K | 0.000924 kPa and 0.000926 kPa and 0.00091 kPa
357.16 K | 0.001122 kPa and 0.001121 kPa and 0.001106 kPa

Conditions | Molar enthalpy of transition or fusion [kcal/mol] | Normal melting temperature [°C]
[1] | – | 128.51
[2] | 6.5 | –

Source: the NIST ThermoML archive (doi:10.1016/j.jct.2013.06.022)
